Results published in patent publication US11116735B2, “Use of substituted benzylideneguanidine derivatives as synergists for polymyxin antibiotics” (GUANGZHOU INSIGHTER BIOTECHNOLOGY CO., LTD., priority 2015, dated 2021).

Key:
E. coli 3Y-9 = test: MIC by doubling dilution, colistin sulfate-susceptible E. coli 3Y-9; assay type: cell-based, Escherichia coli; settings: for In vitro minimum inhibitory concentration (MIC) of the substance alone: E. coli 3Y-9, colistin sulfate-susceptible, derivatives as hydrochlorides; for In vitro MIC of colistin sulfate in the presence of the substituted benzylideneguanidine derivative: E. coli 3Y-9, culture comprised 20.0 ppm of the derivative (hydrochloride), colistin sulfate serially diluted
E. coli 2S-19 = test: MIC by doubling dilution, colistin sulfate-susceptible E. coli 2S-19; assay type: cell-based, Escherichia coli; settings: for In vitro minimum inhibitory concentration (MIC) of the substance alone: E. coli 2S-19, colistin sulfate-susceptible, derivatives as hydrochlorides; for In vitro MIC of colistin sulfate in the presence of the substituted benzylideneguanidine derivative: E. coli 2S-19, culture comprised 20.0 ppm of the derivative (hydrochloride), colistin sulfate serially diluted
E. coli 5W-7 = test: MIC by doubling dilution, colistin sulfate-susceptible E. coli 5W-7; assay type: cell-based, Escherichia coli; settings: for In vitro minimum inhibitory concentration (MIC) of the substance alone: E. coli 5W-7, colistin sulfate-susceptible, derivatives as hydrochlorides; for In vitro MIC of colistin sulfate in the presence of the substituted benzylideneguanidine derivative: E. coli 5W-7, culture comprised 20.0 ppm of the derivative (hydrochloride), colistin sulfate serially diluted
E. coli 3B-24 = test: MIC by doubling dilution, colistin sulfate-susceptible E. coli 3B-24; assay type: cell-based, Escherichia coli; settings: for In vitro minimum inhibitory concentration (MIC) of the substance alone: E. coli 3B-24, colistin sulfate-susceptible, derivatives as hydrochlorides; for In vitro MIC of colistin sulfate in the presence of the substituted benzylideneguanidine derivative: E. coli 3B-24, culture comprised 20.0 ppm of the derivative (hydrochloride), colistin sulfate serially diluted
E. coli 2G-7 = test: MIC by doubling dilution, colistin sulfate-resistant E. coli 2G-7; settings: for In vitro minimum inhibitory concentration (MIC) of the substance alone: E. coli 2G-7, colistin sulfate-resistant, derivatives as hydrochlorides; for In vitro MIC of colistin sulfate in the presence of the substituted benzylideneguanidine derivative: E. coli 2G-7, resistant, culture comprised 20.0 ppm of the derivative (hydrochloride)
E. coli 5F-1 = test: MIC by doubling dilution, colistin sulfate-resistant E. coli 5F-1; settings: for In vitro minimum inhibitory concentration (MIC) of the substance alone: E. coli 5F-1, colistin sulfate-resistant, derivatives as hydrochlorides; for In vitro MIC of colistin sulfate in the presence of the substituted benzylideneguanidine derivative: E. coli 5F-1, resistant, culture comprised 20.0 ppm of the derivative (hydrochloride)
E. coli 4D-6 = test: MIC by doubling dilution, colistin sulfate-resistant E. coli 4D-6; settings: for In vitro minimum inhibitory concentration (MIC) of the substance alone: E. coli 4D-6, colistin sulfate-resistant, derivatives as hydrochlorides; for In vitro MIC of colistin sulfate in the presence of the substituted benzylideneguanidine derivative: E. coli 4D-6, resistant, culture comprised 20.0 ppm of the derivative (hydrochloride)
E. coli 3H-4 = test: MIC by doubling dilution, colistin sulfate-resistant E. coli 3H-4; settings: for In vitro minimum inhibitory concentration (MIC) of the substance alone: E. coli 3H-4, colistin sulfate-resistant, derivatives as hydrochlorides; for In vitro MIC of colistin sulfate in the presence of the substituted benzylideneguanidine derivative: E. coli 3H-4, resistant, culture comprised 20.0 ppm of the derivative (hydrochloride)

Row | In vitro minimum inhibitory concentration (MIC) of the substance alone (E. coli 3Y-9) [ppm] | In vitro MIC of colistin sulfate in the presence of the substituted benzylideneguanidine derivative (E. coli 3Y-9) [ppm] | In vitro minimum inhibitory concentration (MIC) of the substance alone (E. coli 2S-19) [ppm] | In vitro MIC of colistin sulfate in the presence of the substituted benzylideneguanidine derivative (E. coli 2S-19) [ppm] | In vitro minimum inhibitory concentration (MIC) of the substance alone (E. coli 5W-7) [ppm] | In vitro MIC of colistin sulfate in the presence of the substituted benzylideneguanidine derivative (E. coli 5W-7) [ppm] | In vitro minimum inhibitory concentration (MIC) of the substance alone (E. coli 3B-24) [ppm] | In vitro MIC of colistin sulfate in the presence of the substituted benzylideneguanidine derivative (E. coli 3B-24) [ppm] | In vitro minimum inhibitory concentration (MIC) of the substance alone (E. coli 2G-7) [ppm] | In vitro MIC of colistin sulfate in the presence of the substituted benzylideneguanidine derivative (E. coli 2G-7) [ppm] | In vitro minimum inhibitory concentration (MIC) of the substance alone (E. coli 5F-1) [ppm] | In vitro MIC of colistin sulfate in the presence of the substituted benzylideneguanidine derivative (E. coli 5F-1) [ppm] | In vitro minimum inhibitory concentration (MIC) of the substance alone (E. coli 4D-6) [ppm] | In vitro MIC of colistin sulfate in the presence of the substituted benzylideneguanidine derivative (E. coli 4D-6) [ppm] | In vitro minimum inhibitory concentration (MIC) of the substance alone (E. coli 3H-4) [ppm] | In vitro MIC of colistin sulfate in the presence of the substituted benzylideneguanidine derivative (E. coli 3H-4) [ppm] | SMILES
1 | >800 | 1.00 | >800 | 1.00 | >800 | 0.50 | >800 | 1.00 | >800 | 4 | >800 | 8 | >800 | 16 | >800 | 4 | COC(=O)c1ccc(C=NN=C(N)NN=Cc2ccc(C(=O)OC)cc2)cc1 [Compound 12]
2 | >800 | 1.00 | >800 | 1.00 | >800 | 0.50 | >800 | 2.00 | >800 | 16 | >800 | 16 | >800 | 64 | >800 | 16 | CC(C)c1ccc(C=NNC(=N)NN=Cc2ccc(C(C)C)cc2)cc1 [Compound 11]
3 | >800 | 1.00 | >800 | 1.00 | >800 | 0.50 | >800 | 1.00 | >800 | 16 | >800 | 32 | >800 | 32 | >800 | 8 | NC(=NN=Cc1ccc(C(F)(F)F)cc1)NN=Cc1ccc(C(F)(F)F)cc1 [Compound 14]
4 | >800 | 2.00 | >800 | 2.00 | >800 | 1.00 | >800 | 2.00 | >800 | 2.0 | >800 | 4.0 | >800 | 8.0 | >800 | 2.0 | CCOc1ccc(C=NN=C(N)NN=Cc2ccc(OCC)cc2)cc1 [Compound 2]
5 | >800 | 2.00 | >800 | 1.00 | >800 | 0.50 | >800 | 1.00 | >800 | 8 | >800 | 16 | >800 | 32 | >800 | 8 | N=C(NN=Cc1ccc(OC(F)(F)F)cc1)NN=Cc1ccc(OC(F)(F)F)cc1 [Compound 16]
6 | >800 | 1.00 | >800 | 1.00 | >800 | 0.50 | >800 | 1.00 | >800 | 4 | >800 | 8 | >800 | 16 | >800 | 4 | CCSc1ccc(C=NNC(=N)NN=Cc2ccc(SCC)cc2)cc1 [Compound 9]
